Experimental data reported in patent publication US12655174B2, “Adenosine A3 receptor agonists, preparation methods and uses thereof” (ZHEJIANG VIMGREEN PHARMACEUTICALS, LTD., priority 2020, dated 2026).

Test: Pharmacokinetic test of compound in SD rat
Format: in vivo
Settings: SD rats, intragastric administration (IG), cassette dosing
Procedure: Example 28: Pharmacokinetic Test of Compound in SD Rat
The animal species used in this experiment were SD rats. There were 3 animals per group. The rats were dosed in cassette format, i.e., multiple (1-6) different compounds were dosed simultaneously to the same group of the SD rats. The vehicle used for the drug was 5% DMSO+5% Solutl+90% ([…] methylcellulose M450), and the administration route was intragastric administration (IG).

| AUC_D [kg·ng·h/mL/mg] | SMILES |
| --- | --- |
| 564.70 | [2H]C([2H])([2H])NC(=O)[C@H]1O[C@@H](n2cnc3c(NCc4ccc(C(F)(F)F)cc4)nc(-c4cncc(Cl)c4)nc32)[C@H](O)[C@@H]1O [compound 165, (2S,3S,4R,5R)-5-(6-(4-(trifluoromethyl)benzylamino)-2-(5-chloropyridin-3-yl)-9H-purin-9-yl)-3,4-dihydroxyl-N-(methyl-d3)-tetrahydrofuran-2-formamide] |
| 1551.15 | [2H]C([2H])([2H])NC(=O)[C@H]1O[C@@H](n2cnc3c(NCc4ccc(Cl)cc4)nc(-c4cncc(Cl)c4)nc32)[C@H](O)[C@@H]1O [compound 168, (2S,3S,4R,5R)-5-(6-(4-chlorobenzylamino)-2-(5-chloropyridin-3-yl)-9H-purin-9-yl)-3,4-dihydroxyl-N-(methyl-d3)-tetrahydrofuran-2-formamide] |
| 81.74 | CNC(=O)[C@H]1O[C@@H](n2cnc3c(NCc4cccc(C(F)(F)F)c4)nc(-c4cncc(F)c4)nc32)[C@H](O)[C@@H]1O [compound 180, (2S,3S,4R,5R)-5-(6-(3-(trifluoromethyl)benzylamino)-2-(5-fluoropyridin-3-yl)-9H-purin-9-yl)-3,4-dihydroxyl-N-methyl-tetrahydrofuran-2-formamide] |
| 72.67 | CNC(=O)[C@H]1O[C@@H](n2cnc3c(NCc4cccc(C(F)(F)F)c4)nc(-c4cncc(OC)c4)nc32)[C@H](O)[C@@H]1O [compound 181, (2S,3S,4R,5R)-5-(6-(3-(trifluoromethyl)benzylamino)-2-(5-methoxypyridin-3-yl)-9/-purin-9-yl)-3,4-dihydroxyl-N-methyl-tetrahydrofuran-2-formamide] |
| 138.00 | [2H]C([2H])([2H])NC(=O)[C@H]1O[C@@H](n2cnc3c(NCC(F)(F)F)nc(-c4cncc(Cl)c4)nc32)[C@H](O)[C@@H]1O [compound 202] |
| 1347.60 | CNC(=O)[C@H]1O[C@@H](n2cnc3c(NCc4cccc(Cl)c4)nc(-c4cncc(Cl)c4)nc32)[C@H](O)[C@@H]1O [compound 209, (2S,3S,4R,5R)-5-(6-((3-chlorobenzyl))amino-2-(5-chloropyridin-3-yl)-9H-purin-9-yl)-3,4-dihydroxyl-N-methyltetrahydrofuran-2-carboxamide] |
| 580.90 | CNC(=O)[C@H]1O[C@@H](n2cnc3c(NCc4cccc(F)c4)nc(-c4cncc(Cl)c4)nc32)[C@H](O)[C@@H]1O [compound 210, (2S,3S,4R,5R)-5-(2-(5-chloropyridin-3-yl)-6-((3-fluorobenzyl))amino-9H-purin-9-yl)-3,4-dihydroxyl-N-methyltetrahydrofuran-2-carboxamide] |
| 765.47 | [2H]C([2H])([2H])NC(=O)[C@H]1O[C@@H](n2cnc3c(NCc4cc(Cl)ccn4)nc(-c4cncc(Cl)c4)nc32)[C@H](O)[C@@H]1O [compound 214] |
| 785.90 | [2H]C([2H])([2H])NC(=O)[C@H]1O[C@@H](n2cnc3c(NCc4cc(C)ccn4)nc(-c4cncc(Cl)c4)nc32)[C@H](O)[C@@H]1O [compound 215] |
| 278.77 | [2H]C([2H])([2H])NC(=O)[C@H]1O[C@@H](n2cnc3c(NCc4cccc(C#N)c4)nc(-c4cncc(Cl)c4)nc32)[C@H](O)[C@@H]1O [compound 221, (2S,3S,4R,5R)-5-(2-(5-chloropyridin-3-yl)-6-((3-cyanobenzyl)amino)-9H-purin-9-yl)-3,4-dihydroxyl-N-(methyl-d3)-tetrahydrofuran-2-carboxamide] |
| 11356.86 | [2H]C([2H])([2H])NC(=O)[C@H]1O[C@@H](n2cnc3c(NCc4cc(C)ccc4F)nc(-c4cncc(Cl)c4)nc32)[C@H](O)[C@@H]1O [compound 225, (2S,3S,4R,5R)-5-(2-(5-chloropyridin-3-yl)-6-((2-fluoro-5-methylbenzyl)amino)-9H-purin-9-yl)-3,4-dihydroxyl-N-(methyl-d3)-tetrahydrofuran-2-carboxamide] |
| 1456.00 | [2H]C([2H])([2H])NC(=O)[C@H]1O[C@@H](n2cnc3c(NCc4cccnc4)nc(-c4cncc(Cl)c4)nc32)[C@H](O)[C@@H]1O [compound 235, (2S,3S,4R,5R)-5-(2-(5-chloropyridin-3-yl)-6-(pyridin-3-ylmethylamino)-9H-purin-9-yl)-3,4-dihydroxyl-N-(methyl-d3)-tetrahydrofuran-2-carboxamide] |
| 1024.58 | [2H]C([2H])([2H])NC(=O)[C@H]1O[C@@H](n2cnc3c(NCc4cc(Cl)cc(Cl)c4)nc(-c4cncc(Cl)c4)nc32)[C@H](O)[C@@H]1O [compound 240, (2S,3S,4R,5R)-5-(2-(5-chloropyridin-3-yl)-6-(3,5-dichlorobenzylamino)-9H-purin-9-yl)-3,4-dihydroxyl-N-(methyl-d3)-tetrahydrofuran-2-carboxamide] |

The next lines start with the compound.

| SMILES | AUC_D [kg·ng·h/mL/mg] |
| --- | --- |
| CNC(=O)[C@H]1O[C@@H](n2cnc3c(NCc4ccccc4)nc(-c4cccnc4)nc32)[C@H](O)[C@@H]1O [compound 110, (2S,3S,4R,5R)-5-(6-(benzylamino)-2-(pyridin-3-yl)-9H-purin-9-yl)-3,4-dihydroxyl-N-methyltetrahydrofuran-2-carboxamide] | 276.50 |
| CNC(=O)[C@H]1O[C@@H](n2cnc3c(NCc4ccccc4)nc(-c4cncc(C)c4)nc32)[C@H](O)[C@@H]1O [compound 118, (2S,3S,4R,5R)-5-(6-(benzylamino)-2-(5-methylpyridin-3-yl)-9H-purin-9-yl)-3,4-dihydroxyl-N-methyltetrahydrofuran-2-carboxamide] | 347.00 |
| CNC(=O)[C@H]1O[C@@H](n2cnc3c(NCc4ccccc4)nc(-c4ccc(C)nc4)nc32)[C@H](O)[C@@H]1O [compound 120, (2S,3S,4R,5R)-5-(6-(benzylamino)-2-(6-methylpyridin-3-yl)-9H-purin-9-yl)-3,4-dihydroxyl-N-methyltetrahydrofuran-2-carboxamide] | 86.00 |
| CNC(=O)[C@H]1O[C@@H](n2cnc3c(NCc4ccccc4)nc(-c4ccc(F)c(F)c4)nc32)[C@H](O)[C@@H]1O [compound 143, (2S,3S,4R,5R)-5-(6-(benzylamino)-2-(3,4-difluorophenyl)-9H-purin-9-yl)-3,4-dihydroxyl-N-methyltetrahydrofuran-2-carboxamide] | 80.00 |
| CNC(=O)[C@H]1O[C@@H](n2cnc3c(NCc4ccccc4)nc(-c4ccoc4)nc32)[C@H](O)[C@@H]1O [compound 149, (2S,3S,4R,5R)-5-(6-(benzylamino)-2-(furan-3-yl)-9H-purin-9-yl)-3,4-dihydroxyl-N-methyltetrahydrofuran-2-carboxamide] | 337.00 |
| CNC(=O)[C@H]1O[C@@H](n2cnc3c(NCc4ccccc4)nc(-c4cncc(Cl)c4)nc32)[C@H](O)[C@@H]1O [compound 150, (2S,3S,4R,5R)-5-(6-(benzylamino)-2-(5-chloropyridin-3-yl)-9H-purin-9-yl)-3,4-dihydroxyl-N-methyltetrahydrofuran-2-carboxamide] | 1821.60 |
| CNC(=O)[C@H]1O[C@@H](n2cnc3c(NCc4ccccc4)nc(-c4ccsc4)nc32)[C@H](O)[C@@H]1O [compound 151, (2S,3S,4R,5R)-5-(6-(benzylamino)-2-(thiophen-3-yl)-9H-purin-9-yl)-3,4-dihydroxyl-N-methyltetrahydrofuran-2-carboxamide] | 89.00 |
| CNC(=O)[C@H]1O[C@@H](n2cnc3c(NCc4ccccc4)nc(-c4cncc([N+](=O)[O-])c4)nc32)[C@H](O)[C@@H]1O [compound 152, (2S,3S,4R,5R)-5-(6-(benzylamino)-2-(5-nitropyridin-3-yl)-9H-purin-9-yl)-3,4-dihydroxyl-N-methyltetrahydrofuran-2-carboxamide] | 1352.37 |
| CNC(=O)[C@H]1O[C@@H](n2cnc3c(NCc4ccccc4)nc(-c4cncc(F)c4)nc32)[C@H](O)[C@@H]1O [compound 153, (2S,3S,4R,5R)-5-(6-(benzylamino)-2-(5-fluoropyridin-3-yl)-9H-purin-9-yl)-3,4-dihydroxyl-N-methyltetrahydrofuran-2-carboxamide] | 829.00 |
| CCOc1cncc(-c2nc(NCc3ccccc3)c3ncn([C@@H]4O[C@H](C(=O)NC)[C@@H](O)[C@H]4O)c3n2)c1 [compound 158, (2S,3S,4R,5R)-5-(6-(benzylamino)-2-(5-ethoxypyridin-3-yl)-9H-purin-9-yl)-3,4-dihydroxyl-N-methyltetrahydrofuran-2-carboxamide] | 602.00 |
| [2H]C([2H])([2H])NC(=O)[C@H]1O[C@@H](n2cnc3c(NCc4cccc(C)c4)nc(-c4cncc(F)c4)nc32)[C@H](O)[C@@H]1O [compound 162, (2S,3S,4R,5R)-5-(2-(5-fluoropyridin-3-yl)-6-((3-methylbenzyl)amino)-9H-purin-9-yl)-3,4-dihydroxyl-N-(methyl-d3)-tetrahydrofuran-2-carboxamide] | 1156.15 |
| [2H]C([2H])([2H])NC(=O)[C@H]1O[C@@H](n2cnc3c(NCc4cccc(C)c4)nc(-c4cncc(Cl)c4)nc32)[C@H](O)[C@@H]1O [compound 164, (2S,3S,4R,5R)-5-(6-(m-methylphenylmethylamino)-2-(5-chloropyridin-3-yl)-9H-purin-9-yl)-3,4-dihydroxyl-N-(methyl-d3)-tetrahydrofuran-2-formamide] | 845.57 |
